# Key:
# [1] = design: method as in doi:10.1039/jr9480002240; details: first protonation on the ring nitrogen; cited from earlier work
# human topo IIα [2] = target: T1, human topo IIα (Homo sapiens, UniProt P11388); test: HTS relaxation assay of human topo IIα; assay type: biochemical
# T1 construct: purchased Inspiralis (Norwich, U.K.)
# Solubility observations = assay type: physicochemical; details: cell growth medium
# bacterial DNA gyrase = target: bacterial DNA gyrase; design: method as in earlier work; details: previous virtual screening campaign; cited from earlier work
# MCF-7 cells = test: MTS cytotoxicity assay, MCF-7; assay type: cell-based, human; details: 24 h, one concentration (200, 100 or 50 μM by solubility), vs untreated control
# Excerpt: (§1) We have determined the cytotoxicity of the compounds using the human breast cancer MCF-7 and human hepatocellular carcinoma HepG2 cancer cell lines by standard 3-(4,5-dimethylthiazol-2-yl)-5-(3-carboxymethoxyphenyl)-2-(4-sulfophenyl)-2H-tetrazolium (MTS) assay.[65] The two selected human cancer cell lines are representative and well-established systems for the cell-based evaluation of potential cancer drugs. Etoposide was again used as a positive control (PC). We performed initial screening of compounds 1–14 at one concentration.
# (§2) Cytotoxic activity of studied compounds was determined in two human cancer cell lines: hepatocellular carcinoma (HepG2) and breast cancer (MCF-7) cells. Both cell lines were obtained from ATCC. […] After the exposure of cells to the tested compounds, their viability was determined using the MTS assay.
# (§3) The cells were seeded at densities of 8000 and 7000 cells/well for HepG2 and MCF-7 cells, respectively, in 200 μL of complete growth medium onto 96-well microtiter plates (Nunc, Thermo Fisher Scientific, Waltham, MA) and were left overnight at 37 °C to attach. […] After 3 h incubation (37 °C, 5% CO2), the absorbance was determined at 490 nm using a spectrofluorometer Synergy MX (BioTek, Winooski, VT). […] Cell viability was calculated by comparing the optical density (OD) of the wells with exposed cells with the wells of solvent control cells, and the results are shown as percentage of cell viability ± SD. […] The EC50 values were determined utilizing nonlinear regression analysis available in GraphPad Prism 7.0 software. Statistically significant difference between control and treated groups was determined by one-way analysis of variance combined with Dunnett’s multiple comparison test.
# HepG2 cells = test: MTS cytotoxicity assay, HepG2; assay type: cell-based, human; details: 24 h, one concentration (200, 100 or 50 μM by solubility), vs untreated control
# Excerpt: as §1, §2, §3
# human topo IIα [3] = target: T1, human topo IIα; test: Human topo IIα-mediated cleavage assay; assay type: biochemical; details: for linear DNA formation in cleavage assay (in words): four concentrations
# Excerpt: To determine whether compounds act as catalytic inhibitors, a cleavage assay was next performed for compounds 1 and 9.
# We performed the assay in collaboration with Inspiralis (Norwich, U.K.).
# human topo IIα [4] = target: T1, human topo IIα; test: Human topo IIα-mediated kDNA decatenation assay; assay type: biochemical
# Method: (§4) We made use of the human topo II decatenation assay kit from Inspiralis (Norwich, U.K.) to assess the ability of selected compounds to impede DNA decatenation.[89],[90] It was performed for topo IIα and topo IIβ isoforms using the protocol as described previously.[35]
# human topo IIα [5] = target: T1, human topo IIα; test: ATPase activity (ATP hydrolysis) assay, pyruvate kinase/lactate dehydrogenase coupled; assay type: biochemical
# human topo IIβ = target: T2, human topo IIβ (Homo sapiens, UniProt Q02880); test: Human topo IIβ-mediated kDNA decatenation assay; assay type: biochemical
# T2 construct: purchased Inspiralis (Norwich, U.K.)
# T2 sequence (Q02880 whole entry): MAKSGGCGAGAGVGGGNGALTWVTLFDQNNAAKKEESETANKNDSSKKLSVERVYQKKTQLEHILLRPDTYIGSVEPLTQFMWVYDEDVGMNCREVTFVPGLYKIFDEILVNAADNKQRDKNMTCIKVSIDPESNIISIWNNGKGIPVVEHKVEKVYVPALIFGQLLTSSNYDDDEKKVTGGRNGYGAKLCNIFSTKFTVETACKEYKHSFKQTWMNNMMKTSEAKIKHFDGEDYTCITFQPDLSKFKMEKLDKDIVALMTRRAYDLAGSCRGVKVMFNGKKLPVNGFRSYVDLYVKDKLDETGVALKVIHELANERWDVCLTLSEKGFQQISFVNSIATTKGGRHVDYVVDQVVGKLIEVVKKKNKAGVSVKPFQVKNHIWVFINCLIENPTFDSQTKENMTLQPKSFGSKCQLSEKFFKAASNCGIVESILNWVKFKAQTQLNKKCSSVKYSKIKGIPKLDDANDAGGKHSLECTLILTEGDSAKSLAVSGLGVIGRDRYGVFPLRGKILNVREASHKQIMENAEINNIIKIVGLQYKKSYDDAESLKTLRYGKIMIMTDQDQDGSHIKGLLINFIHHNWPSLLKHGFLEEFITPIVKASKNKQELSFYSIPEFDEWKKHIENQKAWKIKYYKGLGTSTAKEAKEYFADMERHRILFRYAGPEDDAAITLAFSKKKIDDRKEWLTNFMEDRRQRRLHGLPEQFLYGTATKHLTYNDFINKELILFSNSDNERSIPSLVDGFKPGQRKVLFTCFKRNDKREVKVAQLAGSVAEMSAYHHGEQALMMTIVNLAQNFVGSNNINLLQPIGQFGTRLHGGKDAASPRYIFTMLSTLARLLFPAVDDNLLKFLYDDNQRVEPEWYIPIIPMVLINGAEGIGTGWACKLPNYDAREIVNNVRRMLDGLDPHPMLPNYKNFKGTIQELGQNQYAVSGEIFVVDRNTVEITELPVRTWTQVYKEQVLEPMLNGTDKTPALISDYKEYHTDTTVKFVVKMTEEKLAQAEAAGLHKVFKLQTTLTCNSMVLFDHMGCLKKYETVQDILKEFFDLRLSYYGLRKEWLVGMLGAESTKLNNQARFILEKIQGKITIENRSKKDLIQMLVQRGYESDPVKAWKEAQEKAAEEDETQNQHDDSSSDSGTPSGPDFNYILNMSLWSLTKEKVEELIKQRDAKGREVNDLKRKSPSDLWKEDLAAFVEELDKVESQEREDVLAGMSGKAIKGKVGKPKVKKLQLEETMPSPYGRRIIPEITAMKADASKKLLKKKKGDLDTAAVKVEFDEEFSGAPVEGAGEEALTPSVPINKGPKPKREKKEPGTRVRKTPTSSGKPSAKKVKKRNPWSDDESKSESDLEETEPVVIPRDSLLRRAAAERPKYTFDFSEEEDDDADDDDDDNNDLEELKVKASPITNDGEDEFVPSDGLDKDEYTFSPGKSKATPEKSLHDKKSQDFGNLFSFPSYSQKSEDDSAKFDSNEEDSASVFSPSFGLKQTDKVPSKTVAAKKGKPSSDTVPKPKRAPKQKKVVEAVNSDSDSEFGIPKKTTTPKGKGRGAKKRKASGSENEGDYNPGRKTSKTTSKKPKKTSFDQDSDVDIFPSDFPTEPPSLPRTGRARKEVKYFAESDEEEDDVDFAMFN
# Method: We were also interested in whether compounds can act on both isoforms of the human topo II. Thus, we performed human topo IIβ decatenation assays for compounds 1 and 9. […] (see also Tables S5 and S6 for more details).
# as §4
# [6] = 500 μM (compound 1: solubility problems, erratic readings)
# T1 sequence (P11388 whole entry): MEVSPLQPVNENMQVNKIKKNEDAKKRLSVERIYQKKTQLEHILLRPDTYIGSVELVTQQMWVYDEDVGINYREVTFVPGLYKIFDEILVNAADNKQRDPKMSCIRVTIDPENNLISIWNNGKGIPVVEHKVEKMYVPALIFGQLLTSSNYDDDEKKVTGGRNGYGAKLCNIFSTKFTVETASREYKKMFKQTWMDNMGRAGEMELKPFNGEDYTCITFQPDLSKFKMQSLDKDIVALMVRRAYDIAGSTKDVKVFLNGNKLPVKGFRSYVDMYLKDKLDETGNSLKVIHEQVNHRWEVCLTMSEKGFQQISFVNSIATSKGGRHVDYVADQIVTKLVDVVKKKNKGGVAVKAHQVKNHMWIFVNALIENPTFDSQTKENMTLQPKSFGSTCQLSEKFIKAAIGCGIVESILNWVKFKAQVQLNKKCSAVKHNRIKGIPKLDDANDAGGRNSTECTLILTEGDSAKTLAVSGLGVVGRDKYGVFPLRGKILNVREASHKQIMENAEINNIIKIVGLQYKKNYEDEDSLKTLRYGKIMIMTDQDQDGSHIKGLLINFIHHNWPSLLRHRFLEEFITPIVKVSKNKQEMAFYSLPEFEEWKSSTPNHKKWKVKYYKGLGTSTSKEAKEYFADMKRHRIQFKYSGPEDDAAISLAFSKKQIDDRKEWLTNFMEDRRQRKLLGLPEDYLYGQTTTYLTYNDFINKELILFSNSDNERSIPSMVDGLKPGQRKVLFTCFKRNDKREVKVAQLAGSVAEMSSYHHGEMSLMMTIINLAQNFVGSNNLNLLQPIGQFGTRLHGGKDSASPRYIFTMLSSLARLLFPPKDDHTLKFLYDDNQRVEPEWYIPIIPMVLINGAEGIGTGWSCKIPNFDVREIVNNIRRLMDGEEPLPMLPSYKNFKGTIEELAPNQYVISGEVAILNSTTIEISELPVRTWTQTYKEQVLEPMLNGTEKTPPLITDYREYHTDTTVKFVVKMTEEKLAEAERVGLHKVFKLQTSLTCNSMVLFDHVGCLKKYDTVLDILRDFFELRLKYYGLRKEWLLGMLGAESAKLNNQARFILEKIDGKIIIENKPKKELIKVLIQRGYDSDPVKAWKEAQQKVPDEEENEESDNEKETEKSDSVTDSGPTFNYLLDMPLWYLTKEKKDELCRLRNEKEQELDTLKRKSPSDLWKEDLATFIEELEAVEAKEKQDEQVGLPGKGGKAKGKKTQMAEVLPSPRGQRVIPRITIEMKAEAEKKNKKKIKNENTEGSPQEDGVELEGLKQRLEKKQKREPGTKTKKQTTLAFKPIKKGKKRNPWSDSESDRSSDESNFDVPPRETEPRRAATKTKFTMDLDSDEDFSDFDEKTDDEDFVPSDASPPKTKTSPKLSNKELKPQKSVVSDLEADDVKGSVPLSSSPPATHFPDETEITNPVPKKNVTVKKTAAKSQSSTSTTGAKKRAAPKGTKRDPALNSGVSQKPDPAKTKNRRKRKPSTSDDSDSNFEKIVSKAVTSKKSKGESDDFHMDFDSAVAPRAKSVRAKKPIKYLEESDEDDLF
compound,measurement,setting,value
Nc1nccs1 [2-aminothiazole],pKa,[1],5.4
Cc1cc(O)ccc1Nc1nc(-c2sc(N)nc2C)cs1 [Compound 2],IC50,human topo IIα [2],35.8 µM
CC(=O)c1ccc(Nc2nc(-c3sc(N)nc3C)cs2)cc1 [Compound 3],solubility in the cell growth medium,Solubility observations,low solubility
same,IC50,human topo IIα [2],222 µM
Cc1cc(NS(=O)(=O)c2ccc(Nc3nc(-c4sc(N)nc4C)cs3)cc2)no1 [Compound 4],IC50,human topo IIα [2],30.1 µM
Cc1nc(N)sc1-c1csc(Nc2ccc(S(N)(=O)=O)cc2)n1 [Compound 5],IC50,bacterial DNA gyrase,8.2 µM
same,IC50,human topo IIα [2],70.1 µM
Cc1nc(N)sc1-c1csc(Nc2ccc(C(=O)O)c(O)c2)n1 [Compound 6],"reduction of cell viability, initial cytotoxicity screening",MCF-7 cells,no or only minor effects
same,IC50,bacterial DNA gyrase,67 µM
same,IC50,human topo IIα [2],37.7 µM
same,"reduction of cell viability, initial cytotoxicity screening",HepG2 cells,no or only minor effects
CC(=O)Nc1nc(C)c(-c2csc(Nc3cccc(O)c3)n2)s1 [Compound 7],IC50,human topo IIα [2],33.7 µM
CC(=O)Nc1nc(C)c(-c2csc(Nc3ccc(C(=O)O)cc3)n2)s1 [Compound 8],"reduction of cell viability, initial cytotoxicity screening",MCF-7 cells,no or only minor effects
same,IC50,bacterial DNA gyrase,5.5 µM
same,IC50,human topo IIα [2],120 µM
same,"reduction of cell viability, initial cytotoxicity screening",HepG2 cells,no or only minor effects
CC(=O)Nc1ccc(Nc2nc(-c3sc(NC(C)=O)nc3C)cs2)cc1 [Compound 9],% Linear DNA (first column),human topo IIα [3]; 3.9 μM,5.49%
same,% Linear DNA (second column),human topo IIα [3]; 3.9 μM,7.03%
same,% Linear DNA (first column),human topo IIα [3]; 31.5 μM,7.77%
same,% Linear DNA (second column),human topo IIα [3]; 31.5 μM,6.75%
same,% Linear DNA (first column),human topo IIα [3]; 125 μM,4.84%
same,% Linear DNA (second column),human topo IIα [3]; 125 μM,4.60%
same,% Linear DNA (first column),human topo IIα [3]; 500 μM,2.95%
same,% Linear DNA (second column),human topo IIα [3]; 500 μM,2.25%
same,linear DNA formation in cleavage assay (in words),human topo IIα [3],did not reveal a significant amount of linear DNA above the background level
same,IC50,human topo IIα [2],60 µM
COc1ccc(Nc2nc(-c3sc(NC(C)=O)nc3C)cs2)cc1 [Compound 10],inhibition at 125 µM,human topo IIα [4]; 125 μM,26%
same,inhibition at 500 µM,human topo IIα [4]; 500 μM,64%
same,IC50,human topo IIα [2],22.7 µM
CC(=O)Nc1nc(C)c(-c2csc(Nc3cccc(C(=O)O)c3)n2)s1 [Compound 11],"reduction of cell viability, initial cytotoxicity screening",MCF-7 cells,no or only minor effects
same,IC50,human topo IIα [2],134 µM
same,"reduction of cell viability, initial cytotoxicity screening",HepG2 cells,no or only minor effects
CC(=O)Nc1nc(C)c(-c2csc(Nc3ccc(O)cc3)n2)s1 [Compound 12],IC50,bacterial DNA gyrase,30 µM
same,IC50,human topo IIα [2],193 µM
CCC(=O)Nc1nc(C)c(-c2csc(Nc3ccc(C(=O)O)cc3)n2)s1 [Compound 13],IC50,bacterial DNA gyrase,1.1 µM
same,IC50,human topo IIα [2],123 µM
CC(=O)Nc1nc(C)c(-c2csc(Nc3ccccc3)n2)s1 [Compound 14],IC50,human topo IIα [2],357 µM
"COc1cc([C@@H]2c3cc4c(cc3[C@@H](O[C@@H]3O[C@@H]5CO[C@@H](C)O[C@H]5[C@H](O)[C@H]3O)[C@H]3COC(=O)[C@H]23)OCO4)cc(OC)c1O [etoposide, reference compound]",Percentage ATPase activity Run 1,human topo IIα [5]; 3.9 μM,52.71%
same,Percentage ATPase activity Run 2,human topo IIα [5]; 3.9 μM,51.94%
same,Percentage ATPase activity Run 1,human topo IIα [5]; 31.5 μM,36.43%
same,Percentage ATPase activity Run 2,human topo IIα [5]; 31.5 μM,37.21%
same,Percentage ATPase activity Run 1,human topo IIα [5]; 125 μM,30.23%
same,Percentage ATPase activity Run 2,human topo IIα [5]; 125 μM,37.21%
same,Percentage ATPase activity Run 1,human topo IIα [5]; [6],0%
same,Percentage ATPase activity Run 2,human topo IIα [5]; [6],4.65%
same,% Linear DNA (first column),human topo IIα [3]; 3.9 μM,22.76%
same,% Linear DNA (second column),human topo IIα [3]; 3.9 μM,11.88%
same,% Linear DNA (first column),human topo IIα [3]; 31.5 μM,33.00%
same,% Linear DNA (second column),human topo IIα [3]; 31.5 μM,36.26%
same,% Linear DNA (first column),human topo IIα [3]; 125 μM,45.35%
same,% Linear DNA (second column),human topo IIα [3]; 125 μM,36.91%
same,% Linear DNA (first column),human topo IIα [3]; 500 μM,43.03%
same,% Linear DNA (second column),human topo IIα [3]; 500 μM,48.40%
same,linear DNA formation in cleavage assay (in words),human topo IIα [3],poison activity
same,% Decatenated Average,human topo IIβ; 3.9 μM,100.0%
same,% Decatenated Assay 1,human topo IIβ; 500 μM,15.0%
"CO[C@@H]1[C@@H](OC(N)=O)[C@@H](O)[C@H](Oc2ccc3c(O)c(NC(=O)c4ccc(O)c(CC=C(C)C)c4)c(=O)oc3c2C)OC1(C)C [novobiocin, reference compound]",Rate ATPase activity,human topo IIα [5]; 10 μM control,0.14 µmol/min

# — article PMC7469689, “Substituted 4,5′-Bithiazoles as Catalytic Inhibitors of Human DNA Topoisomerase IIα” (Journal of Chemical Information and Modeling, 2020)
